Results published in US5317022A, “Pharmaceutical composition and use” (priority 1991, dated 1994).
“Also recorded” adds a separate entry of the source. Counter-ions that a name gives are not always drawn. Like-named read-outs stand apart in the source and are kept apart here.

How the values were obtained:
[1] = target: (^3 H)naloxone binding sites; test: competition binding assay with (3H)naloxone on rat brain membranes; details: membranes incubated with (3H)naloxone 1 nM and increasing ligand concentrations; read-out: Affinity constants (Ki nM) in competition assays
Description: (§1) Membrane preparation: A crude membrane fraction from rat brain (PVG/C strain) was prepared [Mol. Pharm.11 (1975) 340-351 and the protein content was defined [Anal. Biochem. 72(1976) 248-254).
(§2) The membrane suspension (200-400 μg protein) was incubated with the specific radioligand for 1 hour on ice. Incubations were terminated by rapid filtration under vacuo followed by washing with ice cold tris HCl buffer (50 mM, pH 7,4). Radioactivity was measured in a toluene based scintillation mixture on a LKB Minibeta Liquid Scintillation Spectrophotometer. Nonspecific binding was defined in the presence of 10 μM unlabeled naloxone. All assays were performed in triplicate and repeated several times. Ki values were determined from equilibrium experiments and calculated with the Tshang-Prusov equation. The data were evaluated using the Ligand program [Anal. Biol. Chem. 107 (1980) 220-239](Data shown on Table III/1).

[2] = target: (^3 H)naloxone binding sites; test: wash-resistant binding of (3H)naloxone, rat brain membranes; details: preincubated with (3H)naloxone 1 nM and test compound; remaining specific binding after several washings; average of 2-4 data; compound.HCl; read-out: Ki (nM), affinity constants
Description: as §1, §2
After preincubation a thorough washing was performed. [Life Sci. 32 (1983) 2777-2784]. Control values are represented by the specific binding of (3H)naloxone to membranes preincubated with a buffer and treated in the same way. Heterologous displacement experiments were used to evaluate the affinity of the investigated compounds for (^3 H)naloxone binding sites.

rat [3] = test: analgetic effect, hot plate (rat); assay type: in vivo
rat [4] = test: analgetic effect, tail flick (rat); assay type: in vivo
mice = test: analgetic effect, writhing test (mice); assay type: in vivo
rats = test: sedative (narcosis potentiating) effect, Inactine base narcotic, rats; assay type: in vivo
Description: Inactine (35 mg/kg) was used as a base narcotic.
*ED500 % = dose increasing narcosis to five times the control.

rabbits [5] = test: effects on respiration on conscious rabbits (III.5, Marey-drum); details: rabbit, in vivo
Description: Investigation was carried out on conscious rabbits of both sexes and of 3-4 kg weight by way of a Marey-drum. Frequency and amplitude of respiration were quantitatively evaluated.

rabbits [6] = test: effect on respiration on conscious rabbits (III.6, type A/B/C tests); assay type: in vivo; set-up: resp. change ampl.: unit not given here
Description: The method as described above in Example III.5 was used on conscious rabbits of 2,5-3 kg weight. Registration was continued for 3-4 hours. The samples were injected under the skin of the neck and the respiration parameters were registered at intervals of 10 minutes.

rat [7] = test: animal or person; details: read-out: algolyt. test (rat) 100% activity
[8] = type A: OP 0.1 mg/kg s.c., 10 min
[9] = type A: OP 0.5 mg/kg s.c., 10 min
[10] = type A: OP 0.5 mg/kg s.c., then morphine 5 mg/kg s.c., 10 min
[11] = type A: OP 0.5 mg/kg s.c., then morphine 5 mg/kg s.c., 60 min
[12] = type B: morphine 5 mg/kg s.c., then OP 1.0 mg/kg s.c., 20 min
[13] = type B: morphine 5 mg/kg s.c., then OP 1.0 mg/kg s.c., 30 min
[14] = type C: OP 0.25 mg/kg with morphine 5 mg/kg s.c., 20 min
[15] = type C: OP 0.25 mg/kg with morphine 5 mg/kg s.c., 30 min
[16] = type C: OP 0.25 mg/kg with morphine 10 mg/kg s.c., 10 min
[17] = type C: OP 0.25 mg/kg with morphine 20 mg/kg s.c., 30 min
[18] = Rattus norvegicus; read-out: hot plate (rat) ED50
[19] = Rattus norvegicus; read-out: tail flick (rat) ED50
[20] = s.c. on rats, Inactine 35 mg/kg, dose as base
[21] = type A: DP 0.01 mg/kg s.c., 10'
[22] = type A: DP 0.01 mg/kg s.c., 20'
[23] = type A: DP 0.025 mg/kg s.c., 10'
[24] = type A: DP 0.025 mg/kg s.c., 20'
[25] = type A: DP 0.05 mg/kg s.c., 10'
[26] = type C: DP 0.25 mg/kg together with morphine 5 mg/kg s.c., 10'
[27] = type C: DP 0.25 mg/kg together with morphine 5 mg/kg s.c., 20'
[28] = type C: DP 0.25 mg/kg together with morphine 5 mg/kg s.c., 30'
[29] = type C: DP 0.25 mg/kg together with morphine 5 mg/kg s.c., 50'

## COc1ccc2c3c1O[C@H]1C(=NNc4ccccc4)CC[C@@]4(O)[C@@H](C2)N(C)CC[C@]314 [Oxycodone-phenylhydrazone, 14-OH-DIHYDROCODEINONE-PHENYLHYDRAZONE (CIS)]
[1]
  Ki: 1150 nM
[2]
  Ki: 1150 nM
Rat [3]; Rattus norvegicus, read-out: hot plate (rat) ED50
  ED50: 0.8 mg/kg
Rat [4]; Rattus norvegicus, read-out: tail flick (rat) ED50
  ED50: 1.2 mg/kg
mice; Mus musculus, read-out: writhing test (mice) ED50
  ED50: 1.2 mg/kg
rats; rat, in vivo
  ED500 % (dose increasing narcosis to five times the control): 1,5 mg/kg
Rabbits [5]
  influence on the respiratory depression effect of morphine (in words): partially antagonizes the effect of morphine
Rabbits [5]; sc
  respiration effect: no change; also recorded: slight stym
Rabbits [6]; [8]
  resp. change ampl.: +20
  resp. change fr/min: +33
Rabbits [6]; [9]
  resp. change ampl.: 0
  resp. change fr/min: +16
Rabbits [6]; [10]
  resp. change ampl.: -20
  resp. change fr/min: -17
Rabbits [6]; [11]
  resp. change ampl.: 0
  resp. change fr/min: 0
Rabbits [6]; [12]
  resp. change ampl.: +15
  resp. change fr/min: -16
Rabbits [6]; [13]
  resp. change ampl.: +20
  resp. change fr/min: -6
Rabbits [6]; [14]
  resp. change ampl.: +20
  resp. change fr/min: +44
Rabbits [6]; [15]
  resp. change ampl.: +30
  resp. change fr/min: +92
Rabbits [6]; [16]
  resp. change ampl.: +20
  resp. change fr/min: +23
Rabbits [6]; [17]
  resp. change ampl.: 0
  resp. change fr/min: -8
Rat [7]
  ED100: 10 mg/kg

## CN1CC[C@]23c4c5ccc(O)c4O[C@H]2C(=NN)CC[C@H]3[C@H]1C5 [dihydromorphinone hydrazone]
[1]
  Ki: 6 nM

## CN1CC[C@]23c4c5ccc(O)c4O[C@H]2C(=NNc2ccccc2)CC[C@H]3[C@H]1C5 [dihydromorphinone phenylhydrazone]
[1]
  Ki: 5 nM

## COc1ccc2c3c1O[C@H]1C(=NO)CC[C@H]4[C@@H](C2)N(C)CC[C@]314 [Dihydrocodeinone-oxime, DIHYDROCODEINON-OXIME]
[1]
  Ki: 52 nM
[2]
  Ki: 53 nM
Rat [3]; [18]
  ED50: 4.2 mg/kg
Rat [4]; [19]
  ED50: 3.7 mg/kg
mice; Mus musculus; read-out: writhing test (mice) ED50
  ED50: 0.38 mg/kg
Rat [7]
  ED100: 25 mg/kg

## CN1CC[C@]23c4c5ccc(O)c4O[C@H]2C(=NNc2ccccc2)CC[C@@]3(O)[C@H]1C5 [oxymorphone phenylhydrazone]
[1]
  Ki: 20 nM

## COc1ccc2c3c1O[C@H]1C(=NNC(N)=S)CC[C@H]4[C@@H](C2)N(C)CC[C@]314 [Dihydrocodeinone thio-semicarbazone.HCl, Dihydrocodeinone thio-semicarbazone]
Rat [3]; [18]
  ED50: 1.7 mg/kg
Rat [4]; [19]
  ED50: 0.6 mg/kg
Rat [7]
  ED100: 5 mg/kg

## COc1ccc2c3c1O[C@H]1C(=NNc4ccccc4)CC[C@H]4[C@@H](C2)N(C)CC[C@]314 [Dihydrocodeinone-phenylhydrazone]
[1]
  Ki: 323 nM
[2]
  Ki: 323 nM
Rat [3]; [18]
  ED50: 2.4 mg/kg
Rat [4]; [19]
  ED50: 2.3 mg/kg
rats; [20]
  ED500 % (dose increasing narcosis to five times the control): 3,5 mg/kg
Rabbits [6]; [21]
  resp. change ampl.: 0
  resp. change fr/min: +85
Rabbits [6]; [22]
  resp. change ampl.: 0
  resp. change fr/min: +96
Rabbits [6]; [23]
  resp. change ampl.: 0
  resp. change fr/min: +114
Rabbits [6]; [24]
  resp. change ampl.: 0
  resp. change fr/min: +114
Rabbits [6]; [25]
  resp. change ampl.: 0
  resp. change fr/min: +132
Rabbits [6]; [26]
  resp. change ampl.: 0
  resp. change fr/min: +39
Rabbits [6]; [27]
  resp. change ampl.: 0
  resp. change fr/min: +19
Rabbits [6]; [28]
  resp. change ampl.: 0
  resp. change fr/min: -3
Rabbits [6]; [29]
  resp. change ampl.: 0
  resp. change fr/min: -4
Rat [7]
  ED100: 10.1 mg/kg

## COc1ccc2c3c1O[C@H]1C(=NNC(N)=O)CC[C@H]4[C@@H](C2)N(C)CC[C@]314 [Dihydrocodeinone-semicarbazone.HCl, dihydrocodeinone-semicarbazone]
Rat [3]; [18]
  ED50: 0.38 mg/kg
Rat [3]; rat
  hot plate (rat) ED50: 0,38 mg/kg
Rat [4]; [19]
  ED50: 0.35 mg/kg
rats; [20]
  ED500 % (dose increasing narcosis to five times the control): 1,0 mg/kg
Rat [7]
  ED100: 10 mg/kg
